From PMC6895199, “A new antiviral scaffold for human norovirus identified with computer-aided approaches on the viral polymerase” (Scientific Reports, 2019) come the findings set out here.

This experiment relates to MNV. The experiment in a line: MNV CPE reduction assay (MTS) in RAW 264.7 cells. Type of experiment: cell-based, mouse norovirus (MNV-1.CW1). Particulars: Norovirus, RAW264.7, in Mus musculus, Table 2, RAW 264.7, range 0.6–100 µM, at least three independent experiments. The gist of the method:
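MNV-1.CW1-infected RAW 264.7 cells treated at eight concentrations (0.6–100 µM), 2′-C-methylcytidine as positive control. Viability read by MTS/PMS at OD 498 nm after 2 h; %CPE reduction normalised to uninfected and infected untreated cells, EC50 = concentration protecting 50% of cells from virus-induced CPE.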

In the case of `O=C(NC(=S)Nc1ccc(N2CCN(C(=O)c3cccs3)CC2)cc1)c1sc2ccccc2c1Cl` [Compound 48, 3-Chloro-N-((4-(4-(thiophene-2-carbonyl)piperazin-1-yl)phenyl)carbamothioyl)benzo[b]thiophene-2-carboxamide, reference compound], the EC50 (in general, the concentration at which the effect is half-maximal) came out at 58.2 ± 20.7 µM.
Consider `Cc1ccc(C(=O)NC(=S)Nc2ccc(N3CCN(C(=O)c4cccs4)CC3)cc2)cc1` [Compound 52, 4-Methyl-N-((4-(4-(thiophene-2-carbonyl)piperazin-1-yl)phenyl)carbamothioyl)benzamide], for which the EC50 stood at 45.1 ± 10.8 µM.
Next, `O=C(NC(=S)Nc1ccc(N2CCN(C(=O)c3nccs3)CC2)cc1)c1sc2ccccc2c1Cl` [Compound 56, 3-Chloro-N-((4-(4-(thiazole-2-carbonyl)piperazin-1-yl)phenyl)carbamothioyl)benzo[b]thiophene-2-carboxamide]: 66.1 ± 12.3 µM.
